Experimental data: patent US11691960B2, “2-[thiophen-2-yl)formamido]-N-(phenyl)-2-methylpropanamide derivatives and the use thereof as medicament” (Boehringer Ingelheim International GmbH, priority 2020, dated 2023)
Read-outs that look alike come from different tables or passages of the source.

Legend:
human Factor Xa = human Factor Xa (Homo sapiens (Human), UniProt P00742); experiment: Assay C: human Factor Xa chromogenic substrate assay; type: biochemical; conditions: for IC50: human Factor Xa 0.86 nM, chromogenic substrate S2765; for Selectivity Assay C/Assay A: ratio IC50 Factor Xa / IC50 IDO1
Sequence of human Factor Xa (P00742 235-488): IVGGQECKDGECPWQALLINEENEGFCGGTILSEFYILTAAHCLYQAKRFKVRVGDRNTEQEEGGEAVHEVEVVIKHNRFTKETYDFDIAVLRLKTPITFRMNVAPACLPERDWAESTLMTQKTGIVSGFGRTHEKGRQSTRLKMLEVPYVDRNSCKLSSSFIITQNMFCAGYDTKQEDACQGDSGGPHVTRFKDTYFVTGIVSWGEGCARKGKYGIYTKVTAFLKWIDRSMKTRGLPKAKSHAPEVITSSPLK
Sequence of human Factor Xa (P00742 41-179 partner): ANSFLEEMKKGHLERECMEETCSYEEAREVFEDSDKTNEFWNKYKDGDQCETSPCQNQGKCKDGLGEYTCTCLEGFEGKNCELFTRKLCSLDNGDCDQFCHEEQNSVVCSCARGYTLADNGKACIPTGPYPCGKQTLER
Description: Assay C. In Vitro Testing of Human Factor Xa Potency:
Measurement of active human Factor Xa using a specific chromogenic substrate which is labeled with a p-nitro-anilino group (pNA). The cleavage in between the binding of the peptide substrate and the pNA-group is followed by a color change, which can be detected at 405 nm. The amount of cleaved substrate is directly proportional to the amount of active Xa.
[…] (100 U) human Factor Xa (Enzyme Research Laboratories; HFXa1011) were solved in 0.444 ml H2O (Millipore), which accords to a stock solution of 19.28 μM or 225 U/ml. Further dilutions were made in the assay buffer (Tris 100 mM, NaCL 150 mM, adjusted to a pH of 7.8 with HCL, containing 0.1% BSA and 0.05% Tween20). 25 mg (1 vial) of the chromogenic substrate S2765 (Chromogenix; S2765) was solved in 3.5 ml H2O (Millipore) to achieve a stock solution of 10 mM.
Compounds were solved and diluted in DMSO where the final dilution in the assay is 1:10 resulting in a final concentration of 1% DMSO.
• the prefinal dilution step was 1:10 in the assay buffer containing 11% DMSO resulting in 10% DMSO • final dilution in the assay is 1:10 resulting in a final concentration of 1% DMSO
Compounds were tested at final concentrations of 10 μM to 0.003 nM or lower. 5 μl human factor Xa (final concentration 0.86 nM), 2 μl compound dilution or assay buffer (containing 10% DMSO) and 8 μl assay buffer were pipetted in triplicates into a 384-well plate and incubated in the Thermomix at 24° C. for 10 minutes.
After addition of 5 μl chromogenic substrate (final concentration 0.5 mM) the enzyme-substrate reaction started and the kinetic measurement with the SpectraMax Monochromator was started within 1-2 minutes. • Parameter of measurement: (Spectra ax, Monochromator) • Absorbance; 1.LM 405 nM • Kinetic: 16 min each 2nd minute (9 times) • Negative Control (NC) 5 μl human factor Xa+10 μl assay buffer+5 μl Substrate • Positive Control (PC): 5 μl human factor Xa+2 μl Nafamostat (commercially available, final concentration: 1 μM)+8 μl assay buffer+5 μl Substrate • Blank (optional): 15 μl assay buffer+5 μl Substrate
Calculation of IC50, KI and the % effect at the highest concentration (Ratio)
For the calculation the average of the Vmax-values in between 120 sec to 720 sec were taken.
A x/y-Plot was created: x=log (M, Compound); y=vmax (drfu/min)
The data were analyzed with the curve fitting model: log (inhibitor) vs. response—Variable slope (four parameters)
The results of this fit were Top, Bottom, Log (IC50, M), Hillslope and IC50 (M)

MDR1 (P-gp) = MDR1 (P-gp) (Homo sapiens (Human), UniProt P08183); experiment: Assay E: MDCK assay MDR-1 (P-gp); type: in vitro ADME; conditions: for efflux ratio at 2 h, 10 μM: human, final test concentration 10 μM
Sequence of MDR1 (P-gp) (P08183 whole entry): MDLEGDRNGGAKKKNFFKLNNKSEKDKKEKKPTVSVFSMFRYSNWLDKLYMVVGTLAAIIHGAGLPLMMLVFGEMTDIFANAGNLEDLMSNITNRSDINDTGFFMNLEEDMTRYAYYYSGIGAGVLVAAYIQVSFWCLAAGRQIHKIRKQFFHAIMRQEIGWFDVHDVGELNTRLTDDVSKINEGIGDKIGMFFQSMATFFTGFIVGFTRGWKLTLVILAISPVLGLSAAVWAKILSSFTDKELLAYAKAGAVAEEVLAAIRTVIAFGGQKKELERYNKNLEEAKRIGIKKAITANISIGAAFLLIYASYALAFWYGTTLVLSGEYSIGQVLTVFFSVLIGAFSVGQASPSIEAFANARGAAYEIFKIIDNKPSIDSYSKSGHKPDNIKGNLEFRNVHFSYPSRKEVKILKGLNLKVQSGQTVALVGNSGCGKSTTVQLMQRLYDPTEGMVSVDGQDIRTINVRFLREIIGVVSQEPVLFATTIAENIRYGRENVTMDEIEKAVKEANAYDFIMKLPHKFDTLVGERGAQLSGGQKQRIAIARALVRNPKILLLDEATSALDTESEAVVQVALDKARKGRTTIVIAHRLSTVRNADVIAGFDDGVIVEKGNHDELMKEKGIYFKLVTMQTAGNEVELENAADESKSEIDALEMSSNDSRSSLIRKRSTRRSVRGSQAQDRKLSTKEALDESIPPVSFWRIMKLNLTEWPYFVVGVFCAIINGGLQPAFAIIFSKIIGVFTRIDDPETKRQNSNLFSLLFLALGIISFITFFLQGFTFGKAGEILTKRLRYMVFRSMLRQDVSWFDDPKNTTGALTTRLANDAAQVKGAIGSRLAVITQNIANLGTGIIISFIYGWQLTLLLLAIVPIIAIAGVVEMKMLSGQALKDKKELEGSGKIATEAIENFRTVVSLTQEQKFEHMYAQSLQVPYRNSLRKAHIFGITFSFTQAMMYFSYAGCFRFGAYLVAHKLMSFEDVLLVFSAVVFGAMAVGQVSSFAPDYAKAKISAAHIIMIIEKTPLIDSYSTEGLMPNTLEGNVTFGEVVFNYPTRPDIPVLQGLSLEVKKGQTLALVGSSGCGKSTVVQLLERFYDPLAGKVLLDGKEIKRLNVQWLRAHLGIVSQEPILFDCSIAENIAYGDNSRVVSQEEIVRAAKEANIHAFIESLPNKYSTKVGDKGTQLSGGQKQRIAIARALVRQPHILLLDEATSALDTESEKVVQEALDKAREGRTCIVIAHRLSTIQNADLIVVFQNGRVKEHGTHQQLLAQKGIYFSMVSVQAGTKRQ
Description: The MDCK assays provide information on the potential of a compound to pass the blood brain barrier. Permeability measurements across polarized, confluent MDCK-MDR1 cell monolayers grown on permeable filter supports are used as an in vitro absorption model: apparent permeability coefficients (PE) of the compounds across the MDCK-MDR1 cell monolayers are measured (pH 7.4, 37° C.) in apical-to-basal (AB) and basal-to-apical (BA) transport direction. The AB permeability (PEAB) represents drug absorption from the blood into the brain and the BA permeability (PEBA) drug efflux from the brain back into the blood via both, passive permeability as well as active transport mechanisms mediated by efflux and uptake transporters that are expressed on the MDCK-MDR1 cells, predominantly by the overexpressed human MDR1. Identical or similar permeabilities in both transport directions indicate passive permeation, vectorial permeability points to additional active transport mechanisms. Higher PEBA than PEAB (PEBA/PEAB >3) indicates the involvement of active efflux mediated by MDR1, which might compromise the goal to achieve sufficient brain exposure.
Assay E. MDCK assay MDR-1 (P-gp)
Apparent permeability coefficients (Papp) of the compounds across MDCK-MDR1 monolayers (MDCKII cells transfected with human MDR1 gene) are measured in apical-to-basal (AB) and basal-to-apical (BA) direction.
MDCK-MDR1 cells (6×10^5 cells/cm^2) are seeded onto filter inserts (Corning, Transwell, polycarbonate, 0.4 μm pore size) and cultured for 9 to 10 days. Compounds dissolved in DMSO stock solution (1-20 mM) are diluted with HTP-4 buffer (128.13 mM NaCl, 5.36 mM KCl, 1 mM MgSO4, 1.8 mM CaCl2, 4.17 mM NaHCO3, 1.19 mM Na2HPO4, 0.41 mM NaH2PO4, 15 mM HEPES, 20 mM glucose, pH 7.4) supplemented with 0.25% BSA to prepare the transport solutions, resulting in a final test concentration of 1 μM or 10 μM and a final DMSO content of 0.5%. The transport solution is applied to the apical or basolateral donor side for measuring A-B or B-A permeability, respectively. The receiver side contains HTP-4 buffer supplemented with 0.25% BSA. Samples are collected at the start and end of experiment from the donor and at various time intervals for up to 2 hours from the receiver side for concentration measurement by HPLC-MS/MS. Sampled receiver volumes are replaced with fresh receiver solution.
All data reported for Assay E were measured with a final test concentration of 10 μM.

[1] = Assay F: tissue distribution in rat after oral application; type: in vivo; conditions: for in vivo efflux (in words): after oral application; for in vivo efflux (Assay F): oral 10 μmol/kg, muscle/brain tissue distribution
From the text: In order to estimate the amount of administered drug to enter the brain, the brain to plasma ratio is used as surrogate parameter. As efflux transporters (e.g. P-gp) are located at the blood-brain barrier, compounds acting as substrates will be actively transported out of the brain. As these efflux transporters are not expressed in muscle tissue, the relative distribution ratio of compound between muscle and brain tissue can be used as indication for an efflux in vivo in rats or mice. In case there is no in vivo efflux detectable (in rats/mice) and in case there is no efflux in vitro (MDCK-MDR1 (P-gp)), a brain exposure in patients can be expected [see Table 7 for comparison of in vitro efflux data (MDCK-MDR1 assay) and in vivo efflux data (tissue distribution in rat/mouse after oral application)].
Assay F. Determination of Tissue Distribution in Rat/Mouse After Oral Application of Compounds
Male Han Wistar rats or C57BL/6NRj mice were orally dosed with 10 μmol/kg of compound to be investigated, suspended in 0.5% Natrosol/0.015% Tween80. Blood was collected in K3EDTA containing vials from the sublingual vein in short time Isoflurane anesthesia in rat or from the saphenous vein in conscious mice at […], 0.25, 0.5, 1, 2, 3, 4, 8 and 24 hours post administration. Subsequently, plasma was prepared by centrifugation for 5 min at 5000 rpm and stored at −20° C.
Tissues and CSF were sampled in anaesthetized animals. CSF was collected from the cisterna magna. Following exsanguination a femoral muscle sample was collected. Cranium and the dura matter were removed and the complete brain was collected. Before transfer of the muscle and brain sample to pre-weight homogenization devices (Precellys®) the tissues were rinsed with saline and blotted dry.
For homogenization, four parts (v/w) homogenization buffer (37.5% acetonitrile, 37.5% methanol, 25% water) were added. Tissues were homogenized with a Precellys® Evolution homogenizer. Five μL of the homogenate were added to 70 μL of a 1 to 1 (v/v) mixture of acetonitrile and methanol and frozen for at least 10 min at −18° C.
For final sample preparation, the sample was centrifuged at 4000 rpm for 1 min, and an aliquot of the resulting supernatant (30 μL) was mixed with 170 μL formic acid prior to injection to LC-MS. Calibration curves were prepared accordingly in rat and mouse plasma, respectively. All animal care and experimental procedures at Boehringer Ingelheim were conducted in compliance with the German and European Animal Welfare Act (EU Directive 2010/63/EU) and were approved by the Regierungspräsidium Tübingen as the responsible local German authority (reference number 35/9185.81-8/14-009-G).

human androgen receptor = human androgen receptor (Homo sapiens (Human), UniProt P10275); experiment: Assay B: human androgen receptor luciferase reporter assay (Indigo Biosciences); type: cell-based
Sequence of human androgen receptor (P10275 whole entry): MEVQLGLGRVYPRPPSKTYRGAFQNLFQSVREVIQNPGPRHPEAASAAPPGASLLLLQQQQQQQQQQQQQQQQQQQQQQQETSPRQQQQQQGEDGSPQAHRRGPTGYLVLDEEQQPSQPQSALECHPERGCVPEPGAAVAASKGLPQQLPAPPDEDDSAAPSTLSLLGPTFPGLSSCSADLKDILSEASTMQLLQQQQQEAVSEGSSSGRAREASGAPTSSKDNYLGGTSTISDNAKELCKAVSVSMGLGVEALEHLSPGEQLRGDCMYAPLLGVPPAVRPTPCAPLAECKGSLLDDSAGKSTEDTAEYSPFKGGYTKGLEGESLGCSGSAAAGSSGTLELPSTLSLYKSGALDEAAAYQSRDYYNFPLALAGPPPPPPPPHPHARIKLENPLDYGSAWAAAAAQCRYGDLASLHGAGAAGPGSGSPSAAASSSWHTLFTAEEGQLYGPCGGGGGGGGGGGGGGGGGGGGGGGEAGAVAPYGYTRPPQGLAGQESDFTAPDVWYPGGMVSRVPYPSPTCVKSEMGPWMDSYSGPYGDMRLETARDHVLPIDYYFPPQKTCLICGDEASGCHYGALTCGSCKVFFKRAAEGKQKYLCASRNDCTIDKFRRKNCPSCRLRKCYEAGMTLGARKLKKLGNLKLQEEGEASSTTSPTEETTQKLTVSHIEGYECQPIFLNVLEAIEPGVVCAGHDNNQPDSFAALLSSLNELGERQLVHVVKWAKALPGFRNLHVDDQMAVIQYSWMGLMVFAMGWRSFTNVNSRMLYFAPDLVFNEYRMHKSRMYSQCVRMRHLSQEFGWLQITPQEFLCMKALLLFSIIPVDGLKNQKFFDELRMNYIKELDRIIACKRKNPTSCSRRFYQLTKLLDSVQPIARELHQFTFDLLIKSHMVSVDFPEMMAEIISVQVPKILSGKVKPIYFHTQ
From the text: Assay B. In Vitro Testing of Androgen Receptor Potency:
The human androgen receptor (AR) assay was run using Product #IB03001 from Indigo Biosciences. The cell line provided in this kit carries a reporter gene, induced upon AR stimulation. This reporter gene is cDNA encoding for beetle luciferase, a 62 kD protein originating from the North American firefly (Photinus pyralis). This luciferase catalyzes the mono-oxidation of D-luciferin yielding oxyluciferin, adenosine monophosphate, pyrophosphate, CO2, and photon emission. The luminescence intensity of the reaction is quantified using a luminometer.
To run the assay, the cells are thawed by adding pre-warmed cell recovery medium to each tube, then placed in a 37° C. water bath. 30000 viable cells in 200 μl are plated (collagen coated plates) and incubated at 37° C., ≥85% humidity, 5% CO2 for 24 hours. Media is replaced with compound screening medium. Cells are then challenged with 125 pM (EC80) 6a-Fl Testosterone and compounds are applied in half logarithmic dilutions from 10 μM to 10 nM. Assay plates are then incubated at 37° C., ≥85% humidity, 5% CO2 for 22-24 hours. Media is replaced with luciferase detection reagent and allowed 5 minutes to equilibrate prior to luminescence quantification.
Data Analysis consisted of calculating percentage of control between 100% (Negative control:6a-Fl Testosterone) and 0 (positive control: no 6a-FL Testosterone). Fitting of normalized values was made 4-Parameter sigmoidal binding curve (Log[conc]) vs. signal.

[2] = pH 7.4, MDCK-MDR1 monolayers, mean +− standard deviation, read-out: Efflux ratio Assay E
[3] = MDCK-MDR1, pH 7.4, Table 7, read-out: MDCK-MDR1 efflux ratio (Assay E)

SMILES | inhibition of the human Factor Xa enzyme (in words) (human Factor Xa) | IC50 (human Factor Xa) | Selectivity Assay C/Assay A (human Factor Xa) | in vitro efflux, MDCK-MDR1 (in words) (MDR1 (P-gp)) | efflux ratio at 2 h, 10 μM (MDR1 (P-gp); [2]) | efflux ratio at 2 h, 10 μM (MDR1 (P-gp); [3]) | in vivo efflux (in words) [1] | in vivo efflux (Assay F) [1] | IC50 (human androgen receptor; challenge with 125 pM (EC80) 6a-Fl Testosterone, mean +− standard deviation) | Selectivity Assay B/Assay A (human androgen receptor; ratio IC50 androgen receptor / IC50 IDO1)
Cc1cc(NC(=O)C(C)(C)NC(=O)c2ccc(Cl)s2)ccc1C(=O)N1CCCC1 [WO2005/111014 Ex. 4] | inhibits the human Factor Xa enzyme | 8 nM | 0.03 | high efflux | 5.7 |  |  |  |  | 
C#Cc1ccc(C(=O)NC(C)(C(=O)Nc2ccc(N3CCOCC3=O)c(C)c2)C(F)(F)F)s1 (stereo not shown) [5-ethynyl-N-{1-trifluoromethyl-1-[3-methyl-4-(3-oxomorpholin-4-yl)phenylcarbamoyl]ethyl}thiophene-2-carboxamide] | inhibits the human Factor Xa enzyme | 48 nM | 0.08 | high efflux ratio | 32 |  |  |  |  | 
CC(C)(NC(=O)c1ccc(Cl)s1)C(=O)Nc1ncc2c(n1)CCN(Cc1ccccc1)CC2 [WO2007/003536 Ex. 159] |  | > 10000 nM | >13 |  |  | 1.8 | substantial in vivo efflux | 6.2 (rat) |  | 
CC(C)(NC(=O)c1ccc(Cl)s1)C(=O)Nc1ccc(Cl)cc1 [Example 5, 2-[(5-chlorothiophen-2-yl)formamido]-N-(4-chlorophenyl)-2-methylpropanamide] |  | > 10000 nM | >57 |  |  |  |  |  | > 10000 nM | >58
Cc1cc(NC(=O)C(C)(C)NC(=O)c2ccc(Cl)s2)ccc1N1CCOCC1=O [WO2005/111029 Ex. 8] | inhibit the human Factor Xa enzyme | 40 nM | 0.01 | high efflux |  |  |  |  |  | 
CC(=O)N1CCc2ccc(NC(=O)C(C)(C)NC(=O)c3ccc(Cl)s3)cc2CC1 [WO2007/003536 Ex. 6] |  | > 10000 nM | >164 |  |  | 7.6 | substantial in vivo efflux | 12.6 (rat) |  | 
CC(C)(NC(=O)c1ccc(Br)s1)C(=O)Nc1ccc(N2CCOCC2=O)c(Cl)c1 [WO2005/111029 Ex. 28] | inhibit the human Factor Xa enzyme | 26 nM | 0.11 | high efflux |  |  |  |  |  | 
CC(C)(NC(=O)c1ccc(Cl)s1)C(=O)Nc1ccc2c(c1)CCN(C(=O)C(F)(F)F)CC2 [WO2007/003536 Ex. 4] |  | > 10000 nM | >175 |  |  | 1 | substantial in vivo efflux | 3.3 (rat) |  | 
